Data reported in US6660263B2, “Oocydin and methods of use for protection of plants from Oomyocyte pathogens” (HMV Corporation, priority 2000, dated 2003).
In brackets after ≈: the same amount, converted by molar mass. Where a SMILES comes first, the peptide text is derived from it. Bridges are numbered along the chain shown (N, C = ends). [ ]: non-standard residue; d: D form. The star is where a group is joined. Tetradecanoyl(3R-OH) = CCCCCCCCCCC[C@@H](O)CC(=O)*; Asp(3S-OH) = N[C@H](C(=O)O)[C@H](O)C(=O)O; Thr(4-Cl) = N[C@H](C(=O)O)[C@H](O)CCl; aThr = C[C@H](O)[C@H](N)C(=O)O; dDab = NCC[C@@H](N)C(=O)O; Dab = NCC[C@H](N)C(=O)O; Dhb = C/C=C(\N)C(=O)O

How the values were obtained:
Phytophthora parasitica = assay: MIC in PD broth, 24-well plate
Phytophthora cinnamomi = assay: MIC in PD broth, 24-well plate
Phytophthora spp. = assay: MIC in PD broth, 24-well plate; assay type: cell-based; conditions: the most sensitive Oomycetes
Alternaria tomato = assay type: cell-based
Sclerotinia sclerotiorum = assay type: cell-based
Geotrichum candidum = assay type: cell-based
P. ultimum = assay: Plate bioassay of fractions on PDA; assay type: cell-based, Pythium ultimum; conditions: contents of the single HPLC peak (retention time 19.7 min) against P. ultimum
Description: Bioassays. A simple plate bioassay test was used to detect bioactivity of various fractions in the purification of oocydin. Aliquots (10-20 μl) of sample were placed on a PDA plate, dried by placement under a hood having positive airflow, and then inoculated with 0.5×0.5 cm plugs of agar containing P. ultimum. The agar plugs were placed in each of the quadrants of the plate and then incubated for 36-48 hr at 23 C. Antioomycetous activity was apparent as a zone of growth inhibition.

Verticillum dahliae = assay type: cell-based
[1] = system: MCF-7 (breast cancer cell line); assay: Neutral red cytotoxicity assay; assay type: cell-based, human; conditions: 3 days of exposure, preliminary studies
Description: (§1) Oocydin A was tested also against human cancer cell lines BT-20, MCF 7(American Type Culture Collection, Bethesda, Md., USA) and compared with activity against a normal human mammary human cell line (cc2551 HMEC from Clonetics, San Diego, Calif., USA). These cells were exposed to serial dilutions of oocydin A. After 3 days of exposure, the cells were stained with neutral red and the absorbance measured at 540 nm. For non-adherent cells a modification of the staining protocol of Berent, S. L. et al., (1986) Nucleic Acid Res 14, 8997-9015 was used. The results were recorded as IC50 values.

Rhizoctonia solani = assay type: cell-based
Aspergillus fumigatus = assay type: cell-based
[2] = system: normal human mammary cell line (cc2551 HMEC); assay: Neutral red cytotoxicity assay; assay type: cell-based; conditions: 3 days of exposure, preliminary studies
Description: as §1

Phytophthora citrophora = assay: MIC in PD broth, 24-well plate; assay type: cell-based
Pythium ultimum = assay: MIC in PD broth, 24-well plate; assay type: cell-based

`COCC(=O)N(c1c(C)cccc1C)C(C)C(=O)OC` (racemic) [Metalaxyl, N-(2,6-dimethylphenyl)-N-(methoxyacetyl)-DL-alanine methyl ester, reference compound] was tested, and the MIC (Phytophthora parasitica; Phytophthora nicotianae, read-out: Metalaxyl MIC) was 0.06 µg/mL (≈ 0.215 µM) and the MIC (Phytophthora cinnamomi; Phytophthora cinnamomi, read-out: Metalaxyl MIC) was 0.06 µg/mL (≈ 0.215 µM).

For `CC(=O)OC1CC(=O)O[C@H]2C[C@H](CC/C(Cl)=C\C/C=C\1C)O[C@H]2[C@@H](O)/C=C(\C)CC(=O)O` (stereo partly shown) [oocydin A], the MIC (Phytophthora spp.) was “approximately 0.03 μg ml^−1”, the “activity in plate tests” value (Alternaria tomato) was “no activity” and the effect on growth (Candida parapsilosis) was “no effect”. For the same compound, the “activity on PDA plates” value (Sclerotinia sclerotiorum) was “only slight inhibition of growth”, the effect on growth (Histoplasma capsulatum) was “no effect” and the “Minimum inhibitory concentration (MIC)” value (Phytophthora parasitica; Phytophthora parasitica) was “circa 0.03 μg ml^−1”. The “Oocydin MIC Test 1” value (Phytophthora parasitica; Phytophthora parasitica, Test 1) was 0.03 µg/mL, the “Oocydin MIC Test 2” value (Phytophthora parasitica; Phytophthora parasitica, Test 2) was 0.05 µg/mL and the “Minimum inhibitory concentration (MIC)” value (Phytophthora cinnamomi; P. cinnamomi) was “circa 0.03 μg ml^−1”. For the same compound, the “Oocydin MIC Test 1” value (Phytophthora cinnamomi; Phytophthora cinnamomi, Test 1) was 0.03 µg/mL, the “Oocydin MIC Test 2” value (Phytophthora cinnamomi; Phytophthora cinnamomi, Test 2) was 0.02 µg/mL and the effect on growth (Cryptococcus neoformans) was “no effect”. The “activity on PDA plates” value (Geotrichum candidum) was “inactive”, the bioassay activity (P. ultimum) was “active” and the “activity in plate tests” value (Verticillum dahliae) was “no activity”. For the same compound, the IC50 [1] was 0.42 µg/mL (≈ 0.892 µM), the “activity on PDA plates” value (Rhizoctonia solani) was “only slight inhibition of growth” and the effect on growth (Aspergillus fumigatus) was “no effect”. The IC50 [2] was 0.6 µg/mL (≈ 1.27 µM), the “Minimum inhibitory concentration (MIC)” value (Phytophthora citrophora; P. citrophora) was “circa 0.03 μg ml^−1” and the “Oocydin MIC Test 1” value (Phytophthora citrophora; Phytophthora citrophora, Test 1) was 0.03 µg/mL. For the same compound, the “Oocydin MIC Test 2” value (Phytophthora citrophora; Phytophthora citrophora, Test 2) was 0.02 µg/mL, the “Oocydin MIC Test 1” value (Pythium ultimum; Test 1, no visible growth after 48 or 72 hr at 23° C.) was 0.11 µg/mL and the “Oocydin MIC Test 2” value (Pythium ultimum; Test 2, no visible growth after 48 or 72 hr at 23° C.) was 0.39 µg/mL. For the same compound, the effect on growth (Candida albicans) was “no effect”.

In the case of `C/C=C1\NC(=O)[C@H]([C@H](C)O)NC(=O)[C@H](CCN)NC(=O)[C@H](CCCCN)NC(=O)[C@H](CC(=O)O)NC(=O)[C@@H](CCN)NC(=O)[C@@H](NC(=O)C[C@H](O)CCCCCCCCCCC)COC(=O)[C@H]([C@H](O)CCl)NC(=O)[C@H]([C@H](O)C(=O)O)NC1=O` [pseudomycin B, reference compound] ({Tetradecanoyl(3R-OH)}-S[dDab]DK[Dab][aThr][Dhb][Asp(3S-OH)][Thr(4-Cl)]; ester 1-C; N-terminus assumed), the MIC (Candida parapsilosis) was < 1.0 µg/mL, the MIC (Histoplasma capsulatum) was < 1.0 µg/mL and the MIC (Cryptococcus neoformans) was < 1.0 µg/mL. For the same compound, the MIC (Candida albicans) was < 1.0 µg/mL.
